Results reported in patent US12357695B2, “Peptides and nanoparticles for intracellular delivery of molecules” (AADIGEN, LLC, priority 2019, dated 2025).
“Also recorded” adds a separate entry of the source. Square brackets hold non-standard residues; d marks the D form. Primed or numbered codes have the meaning given here. PEG7′ = (PEG)7 moiety; Ava = NCCCCC(=O)O; βAla = NCCC(=O)O

Columns and labels:
293T cells = test: Cellular delivery of pGL4 plasmid DNA expressing Luciferase, luciferase expression at 72 hrs; assay type: cell-based; settings: for reduction of efficiency / luciferase expression in the presence of serum: complexes incubated 3 hrs in 25% serum prior transfection; for reduction of efficiency / luciferase expression in the presence of serum / reduction of efficiency / luciferase expression in heparan sulfate: pGL4 plasmid; for reduction of efficiency / luciferase expression in heparan sulfate: complexes incubated 3 hrs with heparan sulfate prior transfection
Procedure: FIGS. 2A-2C show luciferase expression in 293T cells treated with ADGN-peptide/pGL4 plasmid DNA complexes. 293T cells cultured in 48 well plates were transfected with ADGN-peptide nanoparticles. ADGN-100, ADGN-106, ADGN-100RI, ADGN-106RI, ADGN-100 Stearyl, ADGN-Hydro1, ADGN-Hydro2, ADGN-Hydro3, ADGN-Hydro4, ADGN-Hydro5, and ADGN-Hydro6 containing 0.17 μg pGL4 plasmid DNA were formed in sterile water, diluted in sterile water containing 5% Sucrose. ADGN-peptide nanoparticles were evaluated prior (FIG. 2A) and after filtration with 0.45 μm PES filters (FIG. 2B). FIG. 2C impact of peGylated ADGN-100 on the transfection efficiency. pGL4 luc plasmid (0.15 μg) were associated to ADGN-100 solution containing 5 to 50% of ADGN-100-PEG or to ADGN-100PEG. ADGN/pGL4 plasmid DNA complexes were incubated for 3 hrs in the presence of either 25% serum or heparan sulfate prior transfection. Luciferase expression was monitored 72 hours post transfection and results were reported as RLU (luminescence):mg of protein.
Complex formation with plasmid DNA. The following protocols were used for the transfection of 2-5 106 Cells or Cells at confluency of about 70-80% cultured in 24 well plates. ADGN peptide/plasmid DNA pGL4 particles were prepared at a 20:1 molar ratio of ADGN-Peptide/pGL4. using (0.2 μg). PGL4 plasmid (0.15 μg) was diluted in 20 μl of sterile water (GIBCO) at room temperature. 10 μl Final Peptide Solution was added to obtain a total volume of 20 μl. The volume was adjusted to 50 μl with sterile water and was mixed gently with vortex 1 min low speed and incubated 30 min at room temperature. Then the volume was made up to 100 μl by adding sterile water containing 5% sucrose, and the solution was mixed gently with vortex 1 min low speed and incubate 5 min at 37° C. and then was proceeded to cell transfection.
(§1) Transfection protocol. Protocol is reported for 24 well plate format. Cells were cultured in Dulbecco's Modified Eagle's Medium (DMEM), supplemented with 2 mM glutamine, 1% antibiotics (streptomycin 10,000 μg/mL, penicillin, 10,000 IU/mL) and 10% (w/v) foetal calf serum (FCS), at 37° C. in a humidified atmosphere containing 5% CO2. 24 well plates seeded with 150,000 cells the day prior to transfection were grown to 50-60% confluence and set up to be at about 70% confluences at the time of transfection. Before transfection, cells were washed twice with DMEM. Cells were then overlaid with 0.1 ml of ADGN-peptide/cargo complex solution containing 0.25 μg mRNA, 0.15 μg plasmid DNA or 10-25 nM siRNA, mixed gently, and incubated for 10 min at 37° C. 0.2 mL of fresh DMEM, were added and cells were incubated for 20 min at 37° C. 1 mL of complete DMEM containing 15% FCS were then added in order to reach a final FCS concentration of 10%, without removing the overlay of ADGN-peptide/cargo complexes. Cells were returned to the incubator (37° C., 5% CO2) and 72 hrs post transfection.
ADGN-peptides were evaluated for cellular delivery of pGL4 plasmid DNA expressing Luciferase in 293T cells. Luc pGL4 plasmid (0.15 μg) in sterile water (GIBCO) were mixed with ADGN-100, ADGN-100RI, ADGN-106, ADGN-106RI, ADGN-100 Stearyl, ADGN-100Hydro1, ADGN-100Hydro2, ADGN-100Hydro4, ADGN-100Hydro3, ADGN-100Hydro5 and ADGN-100Hydro6. ADGN-peptide/mRNA complexes were filtered with 0.45 μm PES filter. In order to evaluate the stability of the ADGN/pGL4 plasmid complexes in high serum and cell culture conditions, the complexes were incubated for 3 hrs in the presence of either 25% serum or heparan sulfate prior transfection, then 293T cells were transfected and Luciferase expression was monitored at 72 hrs.

A375/Luc cells = test: Cellular delivery of siRNA targeting Luciferase, luciferase silencing at 48 hrs; assay type: cell-based; settings: 50% or 100% ADGN-100 PEG
Procedure: FIGS. 3A-3C show luciferase expression in A375/Luc cells treated with ADGN-peptide/siRNA complexes. A375/Luc cells cultured in 48 well plates were transfected with ADGN-peptide nanoparticles. ADGN-100, ADGN-106, ADGN-100RI, ADGN-106RI, ADGN-100 Stearyl, ADGN-Hydro1, ADGN-Hydro2, ADGN-Hydro3, ADGN-Hydro4, ADGN-Hydro5, ADGN-Hydro6 and ADGN-peptide/ADGN-100PEG 10% nanoparticles containing 10 nM or 25 nM siRNA were formed in sterile water, diluted in sterile water containing 5% Sucrose and filtered with 0.45 μm PES filters. FIG. 3C impact of peGylated ADGN-100 on the transfection efficiency. siRNA Luc (10 nM and 25 nM) were associated to ADGN-100 solution containing 5 to 50% of ADGN-100-PEG or to ADGN-100PEG. ADGN/siRNA complexes were incubated for 3 hrs in the presence of 25% serum prior transfection. Luciferase expression was monitored 48 hours post transfection and results were reported as RLU (luminescence):mg of protein.
Complex formation with siRNA. The following protocols were used for the transfection of 2-5 106 Cells or Cells at confluency of about 70-80% cultured in 24 well plates. ADGN peptide/siRNA Luc particles were prepared at a 20:1 molar ratio of ADGN-Peptide/pGL4. using 20 nM siRNA. The siRNA duplex (10 and 25 nM) was diluted in 20 μl of sterile water (GIBCO) at room temperature. 1.5 or 3 μl of a Final Peptide Solution (55 μM) was added to obtain a total volume of 20 μl. The volume was adjusted to 50 μl with sterile water and was mixed gently with vortex 1 min low speed and incubated 30 min at room temperature. Then the volume was made up to 100 μl by adding sterile water containing 5% sucrose, and the solution was mixed gently with vortex 1 min low speed and incubate 5 min at 37° C. and then was proceeded to cell transfection.
as §1
ADGN-peptides were evaluated for cellular delivery of siRNA duplex targeting Luciferase in A375/Luc cells. siRNA targeting luciferase (10 and 25 nM) in sterile water (GIBCO) were mixed with ADGN-100, ADGN-100RI, ADGN-106, ADGN-106RI, ADGN-100 Stearyl, ADGN-100Hydro1, ADGN-100Hydro2, ADGN-100Hydro4, ADGN-100Hydro3, ADGN-100Hydro5 and ADGN-100Hydro6. ADGN-peptide/siRNA complexes were filtered with 0.45 μm PES filter. In order to evaluate the stability of the ADGN/siRNA complexes in high serum conditions, the complexes were incubated for 3 hrs in the presence of 25% serum, then A375/Luc cells were transfected and Luciferase expression was monitored at 48 hrs.

mice or rat models = test: Summary of cargo delivery to targeted organ (Table 1); assay type: in vivo; settings: cargoes and route (IV, IM, SQ, NB) per peptide as listed in Table 1
Text: Table 1 lists a summary of cell-penetrating peptides that have been proven successful in delivering various cargo molecules to on or more targeted organ (e.g., by intravenous (IV), intramuscular (IM), or subcutaneous (SQ) administration, or intratraccheal instillation or nebulization (NB)) in mice or rat models.

Row | Substance | reduction of level of Luciferase expression (293T cells; 50% or 100% ADGN-100 PEG, pGL4 plasmid 0.15 μg) [%] | reduction of transfection efficiency (A375/Luc cells) [%] | reduction of efficiency / luciferase expression in the presence of serum (293T cells) | reduction of efficiency / luciferase expression in heparan sulfate (293T cells) | Targeted Organ (mice or rat models)
1 | Ac-(PEG)7-βA-KWRSALWRWRLWRVRSWSR-NH2 ({Ac-PEG7′}-[βAla]KWRSALWRWRLWRVRSWSR-NH2) [ADGN-100-PEG7] | 80 | 80 | – | – | –
2 | Ac-GYVS-Ava-KWRSALWRWRLWRVRSWSR-NH2 (Ac-GYVS[Ava]KWRSALWRWRLWRVRSWSR-NH2; SMILES CC(=O)NCC(=O)N[C@@H](Cc1ccc(O)cc1)C(=O)N[C@H](C(=O)N[C@@H](CO)C(=O)NCCCCC(=O)N[C@@H](CCCCN)C(=O)N[C@@H](Cc1c[nH]c2ccccc12)C(=O)N[C@@H](CCCNC(=N)N)C(=O)N[C@@H](CO)C(=O)N[C@@H](C)C(=O)N[C@@H](CC(C)C)C(=O)N[C@@H](Cc1c[nH]c2ccccc12)C(=O)N[C@@H](CCCNC(=N)N)C(=O)N[C@@H](Cc1c[nH]c2ccccc12)C(=O)N[C@@H](CCCNC(=N)N)C(=O)N[C@@H](CC(C)C)C(=O)N[C@@H](Cc1c[nH]c2ccccc12)C(=O)N[C@@H](CCCNC(=N)N)C(=O)N[C@H](C(=O)N[C@@H](CCCNC(=N)N)C(=O)N[C@@H](CO)C(=O)N[C@@H](Cc1c[nH]c2ccccc12)C(=O)N[C@@H](CO)C(=O)N[C@@H](CCCNC(=N)N)C(N)=O)C(C)C)C(C)C) [ADGN-100 hydro-4] | – | – | do not significantly improved transfection | do not significantly improved transfection | Liver/Lung/; also recorded: Kidney/Spleen
3 | Ac-YIGSR-Ava-KWRSALWRWRLWRVRSWSR-NH2 (Ac-YIGSR[Ava]KWRSALWRWRLWRVRSWSR-NH2; SMILES CC[C@H](C)[C@H](NC(=O)[C@H](Cc1ccc(O)cc1)NC(C)=O)C(=O)NCC(=O)N[C@@H](CO)C(=O)N[C@@H](CCCNC(=N)N)C(=O)NCCCCC(=O)N[C@@H](CCCCN)C(=O)N[C@@H](Cc1c[nH]c2ccccc12)C(=O)N[C@@H](CCCNC(=N)N)C(=O)N[C@@H](CO)C(=O)N[C@@H](C)C(=O)N[C@@H](CC(C)C)C(=O)N[C@@H](Cc1c[nH]c2ccccc12)C(=O)N[C@@H](CCCNC(=N)N)C(=O)N[C@@H](Cc1c[nH]c2ccccc12)C(=O)N[C@@H](CCCNC(=N)N)C(=O)N[C@@H](CC(C)C)C(=O)N[C@@H](Cc1c[nH]c2ccccc12)C(=O)N[C@@H](CCCNC(=N)N)C(=O)N[C@H](C(=O)N[C@@H](CCCNC(=N)N)C(=O)N[C@@H](CO)C(=O)N[C@@H](Cc1c[nH]c2ccccc12)C(=O)N[C@@H](CO)C(=O)N[C@@H](CCCNC(=N)N)C(N)=O)C(C)C) [ADGN-100-Hydro-3] | – | – | do not significantly improved transfection | do not significantly improved transfection | Tumor/Lung
